Laboratory results: patent publication US9681664B2, “Macrocyclic picolinamides as fungicides” (Dow Agrosciences LLC, priority 2012, dated 2017)

Columns and labels:
Format in all cases: in vivo
[1] = tested on: Cercospora beticola; assay: Leaf spot of sugar beets (CERCBE) disease control; conditions: 24 h, 1 Day Protectant, high volume, read-out: Disease Control CERCBE 1 DP
Protocol: Technical grades of materials were dissolved in acetone, which were then mixed with nine volumes of water containing 110 ppm Triton X-100. The fungicide solutions were applied onto wheat seedlings using an automated booth sprayer to run-off. All sprayed plants were allowed to air dry prior to further handling. All fungicides were evaluated using the aforementioned method for their activity vs. all target diseases. Wheat leaf blotch and brown rust activity were also evaluated using track spray applications, in which case the fungicides were formulated as EC formulations, containing 0.1% Trycol 5941 in the spray solutions. Sugar beet plants (variety HH88) were grown in soil-less Metro mix and trimmed regularly to maintain a uniform plant size prior to test. Plants were inoculated with a spore suspension 24 hr after fungicide treatments. Inoculated plants were kept in a dew chamber at 22° C. for 48 hr then incubated in a greenhouse set at 24° C. under a clear plastic hood with bottom ventilation until disease symptoms were fully expressed. Fungicide formulation, application and disease assessment on the sprayed leaves followed the procedures as described in the Example A.

[2] = tested on: Magnaporthe grisea; Anamorph: Pyricularia oryzae; assay: whole plant or invertebrate; conditions: 24 h, read-out: PYRIOR 1 DP disease control
[3] = tested on: Blumeria graminis f. sp. tritici; Synonym: Erysiphe graminis f. sp. tritici; assay: Wheat powdery mildew (ERYSGT) disease control; conditions: 24 h, 1 Day Protectant, high volume, read-out: Disease Control ERYSGT 1 DP
Protocol: Technical grades of materials were dissolved in acetone, which were then mixed with nine volumes of water containing 110 ppm Triton X-100. The fungicide solutions were applied onto wheat seedlings using an automated booth sprayer to run-off. All sprayed plants were allowed to air dry prior to further handling. All fungicides were evaluated using the aforementioned method for their activity vs. all target diseases. Wheat leaf blotch and brown rust activity were also evaluated using track spray applications, in which case the fungicides were formulated as EC formulations, containing 0.1% Trycol 5941 in the spray solutions. Wheat plants (variety Yuma) were grown from seed in a greenhouse in 50% mineral soil/50% soil-less Metro mix until the first leaf was fully emerged, with 7-10 seedlings per pot. These plants were inoculated by dusting with infected stock plants 24 hr after fungicide treatments. After inoculation the plants were kept in a greenhouse set at 20° C. for disease to develop. Fungicide formulation, application and disease assessment on the sprayed leaves followed the procedures as described in the Example A.

[4] = tested on: Glomerella lagenarium; Anamorph: Colletotrichum lagenarium; assay: Cucumber anthracnose (COLLLA) disease control; conditions: Colletotrichum orbiculare, 24 h, 1 Day Protectant, high volume, read-out: Disease Control COLLLA 1 DP
In short: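 Compounds were dissolved in acetone, diluted with nine volumes of water containing 110 ppm Triton X-100 and sprayed to run-off on 12–14-day-old Bush Pickle cucumber seedlings. Plants were spore-inoculated 24 hr later and held 48 hr at 22 °C and 100% RH, then in a 22 °C growth room. Disease on sprayed leaves was then assessed.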

[5] = tested on: Venturia inaequalis; assay: Apple scab (VENTIN) disease control; conditions: 24 h, High volume application, 1 Day Protectant, read-out: VENTIN 1 DP disease control
Protocol: Technical grades of materials were dissolved in acetone, which were then mixed with nine volumes of water containing 110 ppm Triton X-100. The fungicide solutions were applied onto wheat seedlings using an automated booth sprayer to run-off. All sprayed plants were allowed to air dry prior to further handling. All fungicides were evaluated using the aforementioned method for their activity vs. all target diseases. Wheat leaf blotch and brown rust activity were also evaluated using track spray applications, in which case the fungicides were formulated as EC formulations, containing 0.1% Trycol 5941 in the spray solutions. Apple seedlings (variety McIntosh) were grown in soil-less Metro mix, with one plant per pot. Seedlings with two expanding young leaves at the top (older leaves at bottom of the plants were trimmed) were used in the test. Plants were inoculated with a spore suspension of Venturia inaequalis 24 hr after fungicide treatment and kept in a 22° C. dew chamber with 100% RH for 48 hr, and then moved to a greenhouse set at 20° C. for disease to develop. Fungicide formulation, application and disease assessment on the sprayed leaves followed the procedures as described in the Example A.

[6] = tested on: Erysiphe cichoracearum; assay: Powdery mildew of cucumber (ERYSCI) disease control; conditions: Golovinomyces cichoracearum, 24 h, 1 Day Protectant, high volume, read-out: Disease Control ERYSCI 1 DP
Protocol: Technical grades of materials were dissolved in acetone, which were then mixed with nine volumes of water containing 110 ppm Triton X-100. The fungicide solutions were applied onto wheat seedlings using an automated booth sprayer to run-off. All sprayed plants were allowed to air dry prior to further handling. All fungicides were evaluated using the aforementioned method for their activity vs. all target diseases. Wheat leaf blotch and brown rust activity were also evaluated using track spray applications, in which case the fungicides were formulated as EC formulations, containing 0.1% Trycol 5941 in the spray solutions. Cucumber seedlings (variety Bush Pickle) were grown in soil-less Metro mix, with one plant per pot, and used in the test when 12 to 14 days old. Plants were inoculated with a spore suspension 24 hr following fungicide treatments. After inoculation the plants remained in the greenhouse set at 20° C. until disease was fully expressed. Fungicide formulation, application and disease assessment on the sprayed leaves followed the procedures as described in the Example A.

[7] = tested on: Uncinula necator; assay: Grape powdery mildew (UNCINE) disease control; conditions: Erysiphe necator, 24 h, High volume application, 1 Day Protectant, read-out: UNCINE 1 DP disease control
Protocol: Technical grades of materials were dissolved in acetone, which were then mixed with nine volumes of water containing 110 ppm Triton X-100. The fungicide solutions were applied onto wheat seedlings using an automated booth sprayer to run-off. All sprayed plants were allowed to air dry prior to further handling. All fungicides were evaluated using the aforementioned method for their activity vs. all target diseases. Wheat leaf blotch and brown rust activity were also evaluated using track spray applications, in which case the fungicides were formulated as EC formulations, containing 0.1% Trycol 5941 in the spray solutions. Grape seedlings (variety Carignane) were grown in soil-less Metro mix, with one plant per pot, and used in the test when approximately one month old. Plants were inoculated 24 hr after fungicide treatment by shaking spores from infected leaves over test plants. Plants were maintained in a greenhouse set at 20° C. until disease was fully developed. Fungicide formulation, application and disease assessment on the sprayed leaves followed the procedures as described in the Example A.

COc1ccnc(C(=O)N[C@H]2CCC[C@H](Oc3ccccc3)[C@@H](Oc3ccccc3)[C@H](C)OC2=O)c1OCOC(C)=O [F20]
pest or weed control at 100 ppm [1]: 80 to 100%
pest or weed control at 100 ppm [2]: 80 to 100%
pest or weed control at 100 ppm [3]: 0 to 80%
pest or weed control at 100 ppm [4]: 80 to 100%
pest or weed control at 100 ppm [5]: 0 to 80%
pest or weed control at 100 ppm [6]: 0 to 80%
pest or weed control at 100 ppm [7]: 0 to 80%

COc1ccnc(C(=O)N[C@H]2CCC[C@H](OCC(C)C)[C@@H](Oc3ccccc3)[C@H](C)OC2=O)c1OCOC(C)=O [F26]
pest or weed control at 100 ppm [1]: 80 to 100%
pest or weed control at 100 ppm [3]: 0 to 80%
pest or weed control at 100 ppm [4]: 80 to 100%
pest or weed control at 100 ppm [6]: 0 to 80%
pest or weed control at 100 ppm [7]: 0 to 80%

COc1ccnc(C(=O)N[C@H]2CCC[C@H](Oc3ccccc3)[C@@H](OCC(C)C)[C@H](C)OC2=O)c1OCOC(C)=O [F28]
pest or weed control at 100 ppm [1]: 80 to 100%
pest or weed control at 100 ppm [2]: 80 to 100%
pest or weed control at 100 ppm [3]: 0 to 80%
pest or weed control at 100 ppm [4]: 80 to 100%
pest or weed control at 100 ppm [5]: 80 to 100%
pest or weed control at 100 ppm [6]: 0 to 80%
pest or weed control at 100 ppm [7]: 0 to 80%

COc1ccnc(C(=O)N[C@H]2CCC[C@H](OCC(C)C)[C@@H](OCC(C)C)[C@H](C)OC2=O)c1OCOC(C)=O [F29]
pest or weed control at 100 ppm [1]: 80 to 100%
pest or weed control at 100 ppm [2]: 80 to 100%
pest or weed control at 100 ppm [3]: 80 to 100%
pest or weed control at 100 ppm [4]: 80 to 100%
pest or weed control at 100 ppm [5]: 80 to 100%
pest or weed control at 100 ppm [6]: 80 to 100%
pest or weed control at 100 ppm [7]: 80 to 100%

COc1ccnc(C(=O)N[C@H]2CCC[C@H](OCc3ccccc3)[C@@H](OCc3ccccc3)[C@H](C)OC2=O)c1OCOC(C)=O [F30]
pest or weed control at 100 ppm [1]: 0 to 80%
pest or weed control at 100 ppm [2]: 80 to 100%
pest or weed control at 100 ppm [3]: < 0%
pest or weed control at 100 ppm [4]: 80 to 100%
pest or weed control at 100 ppm [5]: 80 to 100%
pest or weed control at 100 ppm [6]: 0 to 80%
pest or weed control at 100 ppm [7]: 0 to 80%

COc1ccnc(C(=O)N[C@H]2CCC[C@H](OCc3ccccc3)[C@@H](Oc3ccccc3)[C@H](C)OC2=O)c1OCOC(C)=O [F31]
pest or weed control at 100 ppm [1]: 80 to 100%
pest or weed control at 100 ppm [2]: 80 to 100%
pest or weed control at 100 ppm [3]: 0 to 80%
pest or weed control at 100 ppm [4]: 80 to 100%
pest or weed control at 100 ppm [6]: < 0%
pest or weed control at 100 ppm [7]: 0 to 80%

COc1ccnc(C(=O)N[C@H]2CCC[C@H](OCC(C)C)[C@@H](Oc3ccccc3)[C@H](C)OC2=O)c1OCOC(=O)C(C)C [F34]
pest or weed control at 100 ppm [1]: 80 to 100%
pest or weed control at 100 ppm [2]: 80 to 100%
pest or weed control at 100 ppm [3]: 0 to 80%
pest or weed control at 100 ppm [4]: 80 to 100%
pest or weed control at 100 ppm [6]: 0 to 80%
pest or weed control at 100 ppm [7]: 0 to 80%

COc1ccnc(C(=O)N[C@H]2CCC[C@H](Oc3ccccc3)[C@@H](OCC(C)C)[C@H](C)OC2=O)c1OCOC(=O)C(C)C [F35]
pest or weed control at 100 ppm [1]: 80 to 100%
pest or weed control at 100 ppm [2]: 80 to 100%
pest or weed control at 100 ppm [3]: 0 to 80%
pest or weed control at 100 ppm [4]: 80 to 100%
pest or weed control at 100 ppm [6]: 80 to 100%
pest or weed control at 100 ppm [7]: 80 to 100%

COc1ccnc(C(=O)N[C@H]2CCC[C@H](Oc3ccccc3)[C@@H](Oc3ccccc3)[C@H](C)OC2=O)c1OCOC(=O)C(C)C [F36]
pest or weed control at 100 ppm [1]: 80 to 100%
pest or weed control at 100 ppm [2]: 80 to 100%
pest or weed control at 100 ppm [3]: < 0%
pest or weed control at 100 ppm [4]: 80 to 100%
pest or weed control at 100 ppm [6]: 0 to 80%
pest or weed control at 100 ppm [7]: 0 to 80%

COc1ccnc(C(=O)N[C@H]2CCC[C@H](OCC(C)C)[C@@H](OCC(C)C)[C@H](C)OC2=O)c1OCOC(=O)C(C)C [F37]
pest or weed control at 100 ppm [1]: 80 to 100%
pest or weed control at 100 ppm [2]: 80 to 100%
pest or weed control at 100 ppm [3]: 0 to 80%
pest or weed control at 100 ppm [4]: 80 to 100%
pest or weed control at 100 ppm [6]: 80 to 100%
pest or weed control at 100 ppm [7]: 80 to 100%

COc1ccnc(C(=O)N[C@H]2CCC[C@H](OCC(C)C)[C@@H](OC3CCCC3)[C@H](C)OC2=O)c1OCOC(=O)C(C)C [F38]
pest or weed control at 100 ppm [1]: 80 to 100%
pest or weed control at 100 ppm [2]: 80 to 100%
pest or weed control at 100 ppm [3]: 0 to 80%
pest or weed control at 100 ppm [4]: 80 to 100%
pest or weed control at 100 ppm [6]: 80 to 100%
pest or weed control at 100 ppm [7]: 80 to 100%

COc1ccnc(C(=O)N[C@H]2CCC[C@H](OCC(C)C)[C@@H](OC3CCCC3)[C@H](C)OC2=O)c1OCOC(C)=O [F39]
pest or weed control at 100 ppm [1]: 80 to 100%
pest or weed control at 100 ppm [2]: 80 to 100%
pest or weed control at 100 ppm [3]: 80 to 100%
pest or weed control at 100 ppm [4]: 80 to 100%
pest or weed control at 100 ppm [5]: 80 to 100%
pest or weed control at 100 ppm [6]: 80 to 100%
pest or weed control at 100 ppm [7]: 0 to 80%

COc1ccnc(C(=O)N[C@H]2CCC[C@H](Oc3ccccc3)[C@@H](OC)[C@H](C)OC2=O)c1OCOC(C)=O [F252]
pest or weed control at 100 ppm [1]: 0 to 80%
pest or weed control at 100 ppm [2]: 80 to 100%
pest or weed control at 100 ppm [4]: 80 to 100%
pest or weed control at 100 ppm [5]: 0 to 80%
pest or weed control at 100 ppm [6]: < 0%
pest or weed control at 100 ppm [7]: 0 to 80%

C=C(C)CO[C@H]1CCC[C@H](NC(=O)c2nccc(OC)c2OCOC(=O)C(C)C)C(=O)O[C@@H](C)[C@@H]1OC [F253]
pest or weed control at 100 ppm [1]: < 0%
pest or weed control at 100 ppm [2]: 80 to 100%
pest or weed control at 100 ppm [4]: 80 to 100%
pest or weed control at 100 ppm [5]: 80 to 100%
pest or weed control at 100 ppm [6]: < 0%
pest or weed control at 100 ppm [7]: 0 to 80%

COc1ccnc(C(=O)N[C@H]2CCC[C@H](OCC(C)C)[C@@H](OC)[C@H](C)OC2=O)c1OCOC(=O)C(C)C [F254]
pest or weed control at 100 ppm [1]: 0 to 80%
pest or weed control at 100 ppm [2]: 80 to 100%
pest or weed control at 100 ppm [4]: 80 to 100%
pest or weed control at 100 ppm [5]: 80 to 100%
pest or weed control at 100 ppm [6]: < 0%
pest or weed control at 100 ppm [7]: 0 to 80%

COc1ccnc(C(=O)N[C@H]2CCC[C@H](Oc3ccccc3)[C@@H](OC)[C@H](C)OC2=O)c1OCOC(=O)C(C)C [F255]
pest or weed control at 100 ppm [1]: 0 to 80%
pest or weed control at 100 ppm [2]: 80 to 100%
pest or weed control at 100 ppm [4]: 80 to 100%
pest or weed control at 100 ppm [5]: 80 to 100%
pest or weed control at 100 ppm [6]: < 0%
pest or weed control at 100 ppm [7]: 80 to 100%
